According to patent US11484576B2, “Methods of promoting corticospinal neuronal outgrowth in neuronal lesions using a pro-regenerative human osteopontin fragment” (THE CHILDREN'S MEDICAL CENTER CORPORATION, priority 2017, dated 2022):

Columns and labels:
[1] = tested on: mice with T10 lateral hemisection; test: Irregular ladder walking after spinal cord T10 lateral hemisection; type: in vivo, mouse; details: for performance in irregular ladder, overground, or treadmill walking: injured mice with AAV-OPN/IGF1 or AAV-PLAP, 14 weeks post injury, i.p., quipazine 0.2 mg/kg, 8-OH-DPAT 0.1 mg/kg, SKF 0.1 mg/kg; for error rate, irregular walking task, denervated hindlimb: 12 weeks after injury, AAV injected into sensorimotor cortex 1 day after injury
Protocol: (§1) Injury Models. […] Briefly, a midline incision was made over the thoracic vertebrae, followed by a T10 laminectomy. The unilateral hemisection was then performed carefully using both scalpel and micro-scissors, avoiding, to the greatest extent, the damage of the spinal cord dura. The muscle layers were then sutured and the skin was secured with wound clips. All mice received post hoc histological analysis and those with spared CST axons (incomplete lateral hemisection) or with significant less CST axons on the contra-lesional side (over lateral hemisection) at the lumbar spinal cord (L3), exemplified in FIG. 9A, were excluded for behavioral analysis.
Virus and Protein Injection.
Irregular Ladder Walking. […] Briefly, the ladder was elevated 30 cm above the ground. […] To prevent animals from learning the pattern, the irregular pattern was changed from trial to trial. All trials were video recorded (Hotshot e64, 100 fps) and paw placement was analyzed twice by blinded observers. Steps with precise placement of the center of the palm on the rung (for both forelimbs and hindlimbs) and digits closed (for forelimbs) were defined as correct steps (hit). All other steps were recorded as errors, which included two types: 1) Miss: when crossing the ladder, the forelimb/hindlimb either completely miss the rung or contact the rung with the wrist/heel instead of the paw; 2) Slip: when crossing the ladder, the mice use a few digits instead of the paw to place on the rungs, causing the subsequent slip on the rungs. The results were expressed as both percentage of total errors and percentage of different placement categories (hit, miss and slip).
(§2) Pharmacological Treatment. […] All behavioral tests were then accomplished between 1-3 hours post administration.

p-IGFRβ = test: phospho-IGFRβ immunostaining in corticospinal neurons after cortical injection of recombinant proteins, T10 lateral hemisection; type: in vivo, mouse; details: intact or axotomized mature CSNs; recombinant protein alone
Source text: (§3) However, it is unknown whether IGF1 triggers similar signaling activation in adult CSNs and, if so, whether it could be altered by OPN treatment. Thus CSNs were labeled by spinal injection of HiRet-GFP, performed T10 lateral hemisection, and then bilaterally injected recombinant IGF, OPN or OPN/IGF1 proteins were bilaterally injected into the cortex (FIG. 5A). In 3 days, the cortical sections from both injured and intact sides of adult mice were immunostained for three factors. Anti-IGFR, anti-phospho-IGFRβ, an indicator for the activation of the IGF-1 mediated signaling pathways (Hernandez-Sanchez et al., 1995; Siddle, 2012), and anti-phospho-S6 (p-S6), an established marker of mTOR activation, one of the downstream target of IGF1 mediated signaling pathways (Liu et al., 2010; Pollak, 2008).
(§4) Virus and Protein Injection. […]
(§5) Immunohistochemistry and Imaging. […] To quantify and compare fluorescence intensity of IGFR, pIGFRβ and pS6 in GFP+ CSNs (FIGS. 2C-2E), CST axons in the dorsal funiculus (FIG. 3G) and CD68 staining (FIG. 10F) and corticofugal projections at multiple subcortical areas (FIG. 7B), and axon density of the intact side in the spinal cord (FIGS. 8E and 8F), all images used for analysis under multiple conditions were taken using the same optical parameters and avoided for saturation. […]

CST axons = test: CST regrowth (axon regeneration and midline-crossing sprouting) after T10 lateral hemisection; type: in vivo, mouse; details: AAV-expressed; for regrowth of injured CST axons at the lesion site: horizontal sections covering the lesion; for sprouting of intact CST axons across midline into the denervated side: spinal levels below the injury site
Source text: Since the mice treated with AAV-OPN/IGF1 were co-injected with AAV-channel rhodopsin (ChR2)-mCherry (AAV-ChR2-mCherry) or AAV-ChR2-YFP to the ipsi-lateral or contra-lateral cortex, respectively, at the termination of behavioral assessment, a post hoc examination of the T10 lateral hemisection histology was first performed. Mice with incomplete- or over-hemisection could be readily identified by analyzing labeled CST axons at the lumbar spinal cord and excluded from further analysis (FIG. 2A). CST regrowth was examined by preparing horizontal spinal cord sections covering the lesion sites to assess axon regeneration across the lesion site, and transverse sections of lower spinal cord segments to assess midline-crossing of CST axons from intact side. […] Thus, these sprouting axons play an important role in the observed functional recovery. Therefore, combined treatment of AAV-OPN and AAV-IGF1 not only promotes CST regrowth but also CST-dependent behavioral performance.
Axon Counting and Quantification. To quantify the number of sprouting axons, a horizontal line was firstly drawn through the central canal and across the lateral rim of the gray matter. Three vertical lines (Mid, Z1, and Z2) were drawn to divide the horizontal line into three equal parts, starting from the central canal to the lateral rim. While Mid denotes midline crossing fibers, Z1 and Z2 are for sprouting fibers at different distance from the midline. Only fibers crossing the three lines were counted on each section. The results were presented after normalization with the number of counted CST fibers at the medulla level.
For quantifying total labeled CST axon, AAV-ChR2-YFP (FIG. 4D) or AAV-ChR2-mCherry (FIGS. 4C, 7E and 8E) labeled CST fibers were counted at the level of medulla oblongata 1 mm proximal to the pyramidal decussation. Axons were estimated by counting 4 rectangular areas (about 10000 μm^2/area) per section on two adjacent sections.
To quantify the regenerating axons (FIG. 4D), the number of intersections of chR2-YFP-labeled fibers with a dorsal-ventral line positioned at a defined distance caudal from the lesion center was counted under a 25X objective. Fibers were counted on 3 sections with the main dorsal CST and 1-3 lateral sections with collaterals in the gray matter. The number of counted fibers was normalized by the number of labeled CST axons in the medulla and divided by the number of evaluated sections.

p-S6 = test: phospho-S6 immunostaining (mTOR activation) in corticospinal neurons after cortical injection of recombinant proteins, T10 lateral hemisection; type: in vivo, mouse; details: intact and axotomized CSNs; recombinant proteins injected into cortex
Source text: as §3, §4, §5

optic nerve axons = test: Optic nerve axon regeneration after optic nerve crush; type: in vivo, mouse
Protocol: The effects of various forms of active OPN were assessed for their capacity to promote optic nerve axon regeneration in an induced injury model. To express the various forms of active OPN AAVs expressing all forms of mouse OPN were injected intravitreally in anesthetized mice. To induce the injury model the optic nerves were crushed using a pair of forceps two weeks after intravitreal injection. Recombinant proteins (CNTF, IGF1, BDNF) were injected at 0 and 7 days after the crush (1 ul each, 1 ug/ul). Fluorescent cholera toxin beta subunit (CTB-555) was injected intravitreally 12 days after crush to trace the axons before the tissues were fixed 14 days after crush, sectioned and imaged.

[2] = tested on: mice with T10 lateral hemisection; test: Ground walking and treadmill walking after T10 lateral hemisection; type: in vivo, mouse; details: i.p.
Protocol: as §1, §2

injured mice = test: Adverse effects of systemic potassium channel blockers in injured mice; type: in vivo; details: doses above 1 mg/kg (3 mg/kg tested), injured mice
Protocol: Chemicals and Antibodies. For systematic administration (i.p.), Quipazine [Sigma (Q1004), 0.2 mg/kg), SKF-82197 [Tocris (1447) 0.1 mg/kg], and 8-OH-DPAT [Tocris (0529), 0.1 mg/kg), 4AP [Sigma (275875), 1 mg/kg, 3 mg/kg), 4AP-MeOH [Santa Cruz (sc-267247), (1 mg/kg)] were dissolved in saline. Tamoxifen (Sigma, 10540-29-1) was dissolved in oil. For diphtheria toxin mediated cell ablation, we purchased the diptheria toxin from Sigma (D0564). For immunostaining, the primary antibody used were chicken anti-GFP [Abcam (Cat: ab13970)], rabbit anti-RFP [Abcam (Cat: ab34771)], rabbit anti-PKCγ [Santa Cruz (sc211)], rabbit anti-GFAP [DAKO (Z0334)]; rabbit anti-5-HT [Immunostar (20080)], rabbit-anti-IGFR [Santa Cruz (sc-712)] rabbit-anti-pIGFR[3 [Cell signaling technology (3024)], rabbit-anti-pS6 [Cell signaling technology (4857)], rat anti-CD68 [Bio-Rad (MCA 1957)], and Guinea pig-anti-Vglut1 [Synaptic Systems (135304)].
Pharmacological Treatment. […] A pilot experiment was performed and determined that 4AP (1 mg/kg, 3 mg/kg) and 4AP-MeOH (1 mg/kg) achieved their maximal effects within 1-3 hours post systematic administration (i.p.). […]

Oc1cc2c(c(Cl)c1O)CCNCC2c1ccccc1 (stereo not drawn) [SKF]
performance in irregular ladder, overground, or treadmill walking [1]: failed to improve | hindlimb performance in irregular ladder walking on the denervated side ([1]; injured mice, i.p. 0.1 mg/kg): deteriorated the hindlimb performance

OPN: recombinant osteopontin (OPN) protein (Peprotech), injected into cortex or intravitreally
effect on p-IGFRβ (p-IGFRβ): no overt effect | error rate, irregular walking task, denervated hindlimb [1]: ~70% | regrowth of injured CST axons at the lesion site (CST axons): significant die-back from the lesion site | sprouting of intact CST axons across midline into the denervated side (CST axons): little sprouting across midline | effect on p-S6 levels (p-S6): not IGF1 or OPN alone | effect of OPN added to CNTF on optic nerve axon regeneration (optic nerve axons; OPN with CNTF): no added effect | effect of recombinant OPN protein on the optic nerve (optic nerve axons; intravitreal application, combined with IGF1 (FIG. 20)): pro-regenerative effects

CCCN(CCC)C1CCc2cccc(O)c2C1 (stereo not drawn) [8-OH-DPAT]
performance in irregular ladder, overground, or treadmill walking [1]: failed to improve

Nc1ccncc1 [4-AP, 4-aminopyridine]
recovery of treadmill walking performance compared to the control [2]: neither 4-AP nor 4-AP-MeOH had significant effects | error rates, irregular ladder walking task ([1]; 1 mg/kg i.p., mice with OPN/IGF1 treatment): showed a trend of reducing the error rates in mice with OPN/IGF1 treatment, but failed to reach statistical significance | adverse effect at higher doses (injured mice): seizures

IGF1: recombinant human insulin-like growth factor 1 (Peprotech)
effect on p-IGFRβ (p-IGFRβ): no overt effect | error rate, irregular walking task, denervated hindlimb [1]: ~70% | regrowth of injured CST axons at the lesion site (CST axons): significant die-back from the lesion site | sprouting of intact CST axons across midline into the denervated side (CST axons): little sprouting across midline | effect on p-S6 levels (p-S6): not IGF1 or OPN alone | dose dependence of the regenerative effect (optic nerve axons; combined with OPN): dosage dependent

c1ccc2nc(N3CCNCC3)ccc2c1 [quipazine]
performance in irregular ladder, overground, or treadmill walking [1]: failed to improve

B1: recombinant CNTF: recombinant CNTF protein injected after optic nerve crush (protein, UniProt P26441 1-200, looked up)
Ciliary neurotrophic factor: MAFTEHSPLTPHRRDLCSRSIWLARKIRSDLTALTESYVKHQGLNKNINLDSADGMPVASTDQWSELTEAERLQENLQAYRTFHVLLARLLEDQQVHFTPTEGDFHQAIHTLLLQVAAFAYQIEELMILLEYKIPRNEADGMPINVGDGGLFEKKLWGLKVLQELSQWTVRSIHDLRFISSHQTGIPARGSHYIANNKKM
optic nerve regeneration (optic nerve axons; intravitreal AAV 2 weeks before crush, recombinant proteins at 0 and 7 days after crush (1 ul, 1 ug/ul), 14 days after crush): no effect
